Test results from patent publication US10576105B2, “Mesenchymal stem cells with enhanced immunosuppressive capability” (Escape Therapeutics, Inc., priority 2015, dated 2020).

How the values were obtained:
Format in all cases: cell-based, human
HLA-G3 [1] = assay: HLA-G3 transcript expression in BMSCs by semi-quantitative RT-PCR; details: mean±SEM
Procedure: (§1) Adult BMSCs (passage 2) were obtained from Cell Applications, Inc. (San Diego, Calif.) and cultured in alpha-minimum essential medium (α-MEM) (Invitrogen) supplemented with 10% FBS and 1% penicillin/streptomycin (Invitrogen) at 37° C. in a humidified 5% CO2 incubator. At 70-80% confluence, cells were harvested with 0.25% trypsin-EDTA (Invitrogen) and expanded at 1:3 split ratios.
(§2) Demethylating treatment was carried out by culturing MSCs for 72 h with 5-aza-2′-deoxycytidine (5-aza-dC) (Sigma) at a final concentration of 10 μM or with the solvent DMSO as control.
(§3) After 72 h treatment, cells were trypsinized and total RNA extracted using RNeasy kit (Qiagen, Valencia, Calif.) according to the manufacturer's protocol. Semi-quantitative RT-PCR reactions were performed on a DNA Engine Peltier Thermal Cycler (Bio-Rad, Hercules, Calif.) as previously described. M. D. Nicola, et al., Human bone marrow stromal cells suppress T-lymphocyte proliferation induced by cellular or non-specific mitogenic stimuli, Blood 99: 3838-3843 (2002). Briefly, first strand cDNA was synthesized in 50 μl reactions from 2 μg total RNA using oligo dT primers and TaqMan reverse transcription reagents (Applied Biosystems, Foster City, Calif.). Reverse transcription (RT) reactions were carried out at 24° C. for 10 min, 48° C. for 1 h, and heat inactivation at 95° C. for 5 min. RT samples were diluted at 1:4 in DNase, RNase free water and PCR performed in 20 μl reaction using Taq PCR master mix (Qiagen), 1 μl of diluted template, and HLA-G primers (Table 1). β-actin was used as an internal control. PCR program consisted of 94° C. for 4 min, followed by 30 cycles at 94° C. for 30 s, 60° C. for 1 min, and 72° C. for 1 min with a final extension at 72° C. for 10 min. PCR products were separated using 1.5% agarose gel in the presence of 0.5 μg/ml ethidium bromide and imaged using the FluorChem® HD2 Imaging System (Alpha Innotech Corporation, San Leandro, Calif.). Densitometry analysis was performed using AlphaEase FC software (Alpha Innotech Corporation). Relative expression levels were calculated from the ratio of integrated density values of HLA-G to that of β-actin.
(§4) Total RNA was extracted from both treated and untreated cells, and HLA-G1 and -G3 transcripts analyzed by semi-quantitative RT-PCR.
(§5) MSCs were treated with Valproic acid (VPA) (a known histone deacetylase inhibitor (HDAC) inhibitor) and HLA-G1, -G3 and HLA-G5 transcripts were evaluated by semi-quantitative RT-PCR.

HLA-G5 [2] = assay: HLA-G5 mRNA level in AMSCs by RT-PCR; details: for Relative expression of HLA-G5: AMSCs, band intensity HLA-G5 divided by β2M, means±SEM, 3 runs
Procedure: (§6) AMSCs were isolated from adult human lipoaspirate of patients undergoing liposuction procedure. Briefly, abdominal subcutaneous adipose samples were washed with Hanks' balanced salt solutions (HBSS) (Invitrogen, Carlsbad, Calif.). After gentle shaking, the lower phase (containing stem cells, adipocytes, and blood) was washed and enzymatically dissociated with 0.075% collagenase type I (Sigma-Aldrich, St. Louis, Mo.)/HBSS for 1 h at 37° C. with gentle shaking. Collagenase was inactivated by adding fetal bovine serum (FBS) and samples were centrifuged at 400 g for 10 min at 25° C. The pellet was resuspended in RBC lysis buffer (eBioscience, San Diego, Calif.) and adherent cell masses were removed by sequential passing through 100, 70, and 40 μm mesh filters. Cells were then added into equal amounts of HISTOPAQUE-1077 (Sigma) and centrifuged at 400 g for 30 min to separate MSCs. Cells were seeded at 1-2×10^4 cells/cm^2 and grown in Dulbecco's modified eagle medium (DMEM, Invitrogen) supplemented with 10% FBS and 1% penicillin/streptomycin (Invitrogen) at 37° C. in a humidified 5% CO2 incubator and media changed every 2-3 d. After reaching 70-80% confluence, cells were washed with phosphate buffered saline (PBS), detached with 0.25% trypsin-EDTA (Invitrogen), then centrifuged and expanded at 1:3 split ratios.
After 72 h treatment, cells were trypsinized and total RNA extracted using RNeasy kit (Qiagen, Valencia, Calif.) according to the manufacturer's protocol. Semi-quantitative RT-PCR reactions were performed on a DNA Engine Peltier Thermal Cycler (Bio-Rad, Hercules, Calif.) as previously described. M. D. Nicola, et al., Human bone marrow stromal cells suppress T-lymphocyte proliferation induced by cellular or non-specific mitogenic stimuli, Blood 99: 3838-3843 (2002). Briefly, first strand cDNA was synthesized in 50 μl reactions from 2 μg total RNA using oligo dT primers and TaqMan reverse transcription reagents (Applied Biosystems, Foster City, Calif.). […]

HLA-G1 [3] = assay: HLA-G1 transcript expression in AMSCs by semi-quantitative RT-PCR; details: for Relative HLA-G1 expression: 10 μM for 72 h, ratio HLA-G to β-actin, mean±SEM, 3 experiments
Procedure: as §6, with “ratios. […]” for “ratios.”
After 72 h treatment, cells were trypsinized and total RNA extracted using RNeasy kit (Qiagen, Valencia, Calif.) according to the manufacturer's protocol. Semi-quantitative RT-PCR reactions were performed on a DNA Engine Peltier Thermal Cycler (Bio-Rad, Hercules, Calif.) as previously described. […] Relative expression levels were calculated from the ratio of integrated density values of HLA-G to that of β-actin.
as §4, §5

HLA-G1 [4] = assay: HLA-G1 transcript expression in BMSCs by semi-quantitative RT-PCR; details: mean±SEM
Procedure: as §1, §2
as §3, with “RT samples were diluted at 1:4 in DNase, RNase free water and PCR performed in 20 μl reaction using Taq PCR master mix (Qiagen), 1 μl of diluted template, and HLA-G primers (Table 1). β-actin was used as an internal control.” left out, “Relative expression levels were calculated from the ratio of integrated density values of HLA-G to that of β-actin.” left out
as §4, §5

HLA-G5 [5] = assay: HLA-G5 mRNA level in BMSCs by RT-PCR; details: band intensity HLA-G5 divided by β2M, means±SEM, 3 runs
Procedure: as §1
After 72 h treatment, cells were trypsinized and total RNA extracted using RNeasy kit (Qiagen, Valencia, Calif.) according to the manufacturer's protocol. Semi-quantitative RT-PCR reactions were performed on a DNA Engine Peltier Thermal Cycler (Bio-Rad, Hercules, Calif.) as previously described. M. D. Nicola, et al., Human bone marrow stromal cells suppress T-lymphocyte proliferation induced by cellular or non-specific mitogenic stimuli, Blood 99: 3838-3843 (2002). Briefly, first strand cDNA was synthesized in 50 μl reactions from 2 μg total RNA using oligo dT primers and TaqMan reverse transcription reagents (Applied Biosystems, Foster City, Calif.). Reverse transcription (RT) reactions were carried out at 24° C. for 10 min, 48° C. for 1 h, and heat inactivation at 95° C. for 5 min. […] PCR program consisted of 94° C. for 4 min, followed by 30 cycles at 94° C. for 30 s, 60° C. for 1 min, and 72° C. for 1 min with a final extension at 72° C. for 10 min. […]

HLA-G3 [6] = assay: HLA-G3 transcript expression in AMSCs by semi-quantitative RT-PCR; details: for Relative HLA-G3 expression: ratio HLA-G to β-actin, mean±SEM, 3 experiments
Procedure: as §6, §2
After 72 h treatment, cells were trypsinized and total RNA extracted using RNeasy kit (Qiagen, Valencia, Calif.) according to the manufacturer's protocol. Semi-quantitative RT-PCR reactions were performed on a DNA Engine Peltier Thermal Cycler (Bio-Rad, Hercules, Calif.) as previously described. M. D. Nicola, et al., Human bone marrow stromal cells suppress T-lymphocyte proliferation induced by cellular or non-specific mitogenic stimuli, Blood 99: 3838-3843 (2002). Briefly, first strand cDNA was synthesized in 50 μl reactions from 2 μg total RNA using oligo dT primers and TaqMan reverse transcription reagents (Applied Biosystems, Foster City, Calif.). Reverse transcription (RT) reactions were carried out at 24° C. for 10 min, 48° C. for 1 h, and heat inactivation at 95° C. for 5 min. […] Relative expression levels were calculated from the ratio of integrated density values of HLA-G to that of β-actin.
as §4, §5

[7] = BMSCs passage 5 (P5), 10 μM for 72 h, ratio HLA-G to β-actin, 3 experiments
[8] = BMSCs passage 10 (P10), 10 μM for 72 h, ratio HLA-G to β-actin, 3 experiments

| Structure (SMILES) | Relative HLA-G3 expression (HLA-G3 [1]; [7]) | Relative HLA-G3 expression (HLA-G3 [1]; [8]) | Relative expression of HLA-G5 (HLA-G5 [2]) | Relative HLA-G1 expression (HLA-G1 [3]; AMSCs passage 5 (P5)) | Relative HLA-G1 expression (HLA-G1 [3]; AMSCs passage 10 (P10)) | Relative HLA-G1 expression (HLA-G1 [4]; [7]) | Relative HLA-G1 expression (HLA-G1 [4]; [8]) | Relative expression of HLA-G5 (HLA-G5 [5]) | Relative HLA-G3 expression, fold higher than untreated (HLA-G3 [6]; AMSCs P5 and P10, 10 μM for 72 h, treated versus untreated) [fold] | Relative HLA-G3 expression (HLA-G3 [6]; AMSCs passage 5 (P5), 10 μM for 72 h) | Relative HLA-G3 expression (HLA-G3 [6]; AMSCs passage 10 (P10), 10 μM for 72 h) | Relative HLA-G3 expression (HLA-G3 [1]; VPA-treated BMSCs passage 5 (P5), FIG. 5B) | Relative HLA-G3 expression (HLA-G3 [1]; VPA-treated BMSCs passage 10 (P10), FIG. 5B) | Upregulation of HLA-G5 mRNA (HLA-G5 [2]; AMSCs treated with VPA (Table 2)) | Upregulation of HLA-G1 mRNA (HLA-G1 [3]; AMSCs treated with VPA, P5 and P10 (FIG. 5C)) | Relative HLA-G1 expression (HLA-G1 [4]; VPA-treated BMSCs passage 5 (P5), relative to β2M (FIG. 5A)) | Relative HLA-G1 expression (HLA-G1 [4]; VPA-treated BMSCs passage 10 (P10), relative to β2M (FIG. 5A)) | Upregulation of HLA-G3 mRNA (HLA-G3 [6]; AMSCs treated with VPA, P5 and P10 (FIG. 5D)) |
| --- | --- | --- | --- | --- | --- | --- | --- | --- | --- | --- | --- | --- | --- | --- | --- | --- | --- | --- |
| Nc1ncn([C@H]2C[C@H](O)[C@@H](CO)O2)c(=O)n1 [5-aza-dC, 4-amino-1-(2-deoxy-b-D-erythro-pentofuranosyl)-1,3,5-triazin-2(1H)-one] | 0.33±0.08 | 0.38±0.07 | 0.009 ± 0.001 | 0.15±0.02 | 0.23±0.19 | 0.16±0.01 | 0.24±0.01 | 0.009 ± 0.00 | ~2 | 0.31±0.05 | 0.27±0.06 | – | – | – | – | – | – | – |
| CCCC(CCC)C(=O)O [VPA, Valproic acid] | – | – | 0.006 ± 0.00 | – | – | – | – | 0.006 ± 0.004 | – | – | – | 0.04±0.01 | 0.01±0.001 | no upregulation | no upregulation | 0.08±0.02 | 0.05±0.002 | no upregulation |
